1 compound from patent US12491186B2, “EGFR inhibitors for treating keratodermas” (INSERM (Institut National de la Santé et de la Recherche …, priority 2018, dated 2025) can be followed below.

This series concerns OS patients.

Like-named read-outs stand apart in the source and are kept apart here.

On to `C#Cc1cccc(Nc2ncnc3cc(OCCOC)c(OCCOC)cc23)c1.Cl` [Erlotinib], for which the overall clinical outcome (3 OS patients) is “dramatic improvement”. Further, the “pain outcome after three months” value (OS patients on Erlotinib, after three months) was “total disappearance and spontaneous pain drug removal”. Also, the “only persistent side effect” value (human, in vivo) is “moderate acne reaction”. In addition, for the setting “human, in vivo”, the “side effect leading to dose reduction” value is “abdominal pain and nausea”. Moreover, the “keratoderma regression completed at day” value reads like this: (patient 2 (mild PPK), Erlotinib 50 mg) 30 days; (patients 1 and 3 (severe PPK)) 90 days. The reduction of pain result is “later” (patient 3, Erlotinib started at 50 mg); “rapid reduction of pain was observed within days” (patients 1 and 2, Erlotinib started at 100 mg (patient 2 reduced to 50 mg)).
